# Molecular target: T1, M.HhaI-Q82A/N304A (Haemophilus parahaemolyticus, UniProt P05102, N304A/Q82A)
# T1 construct: made in house
# Test: Modification of cytosine-C5 in duplex oligodeoxynucleotide III.IV by M.HhaI-Q82A/N304A, nucleoside analysis by HPLC/ESI-MS
# Type: biochemical
# Conditions: duplex III.IV 10 μM, cofactor 300 μM, enzyme 12.5 μM, 37° C. over night
# Experimental: After enzymatic transfer the duplex oligodeoxy-nucleotides were enzymatically fragmented and the resulting modified nucleosides were analyzed by reversed-phase HPLC coupled with ESI-MS.
# Therefore, the codon for N304 was changed to a codon for alanine by standard Megaprimer PCR mutagenesis (Sambrook and Russell, (2001) Cold Spring Harbor Laboratory Press, 13.31-13.35) and the fragment containing this mutation was cloned into the plasmid containing the Q82A mutation (Example 2B, Example 3B.2. The correct DNA sequence of the complete gene was verified by DNA sequencing. Expression and purification of the Q82A/N304A variant was performed as described for the wild-type enzyme (Kumar et al., (1992) Biochemistry 31, 8648-8653; Klimasauskas et al., (1998) EMBO J. 17, 317-324). The presence of the amino acid substitution was verified by mass spectrometric analysis of purified M.HhaI-Q82A/N304A.
# The duplex oligodeoxynucleotide III.IV (compare Scheme 6, Example 2B) was produced by mixing equal molar amounts (2.5 nmol) of complementary single-stranded oligodeoxynucleotide III (5′-[…] CTAT-3′) (SEQ ID NO. 3) and IV (5′-[…]-3′) (SEQ. ID NO. 4) in water, heating at 85° C. for 5 min and slow cooling to room temperature. […] The solution was heated to 80° C. for 10 min, supplemented with Proteinase K and incubated at 55° C. for 2 h. […]
# T1 sequence (P05102 whole entry Q82A/N304A): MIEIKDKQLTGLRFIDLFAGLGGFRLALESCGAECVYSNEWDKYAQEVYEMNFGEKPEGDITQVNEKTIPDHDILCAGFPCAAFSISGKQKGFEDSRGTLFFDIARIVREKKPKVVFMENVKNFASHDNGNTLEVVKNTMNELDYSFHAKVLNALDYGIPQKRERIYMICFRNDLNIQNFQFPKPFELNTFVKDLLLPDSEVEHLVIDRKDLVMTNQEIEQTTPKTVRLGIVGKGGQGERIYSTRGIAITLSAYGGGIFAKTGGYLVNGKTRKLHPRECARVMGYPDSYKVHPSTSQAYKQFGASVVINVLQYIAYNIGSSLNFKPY
smiles,measurement,value
NCCCC(=O)NCC#CC[S+](CCC(N)C(=O)O)CC1OC(n2cnc3c(N)ncnc32)C(O)C1O (stereo not shown) [Cofactor 10],cofactor function for M.HhaI-Q82A/N304A (transfer of group Z-R to cytosine-C5),functions as a cofactor

# — US8008007B2, “S-adenosyl-L-methionine analogs with extended activated groups for transfer by methyltransferases” (RWTH Aachen, priority 2005, dated 2011)
